From patent publication US20240376108A1, “SALT AND CRYSTAL FORM OF PYRAZOLE-CONTAINING POLYCYCLIC DERIVATIVE, AND PREPARATION METHOD THEREFOR AND USE THEREOF” (Shanghai Hansoh Biomedical Co., Ltd., priority 2021, published 2024)

Legend:
[1] = Pharmacokinetic assay of the salt forms in rats (10 mg/kg); format: in vivo; details: SD rats
Description: 2.3 Pharmacokinetic assay of the methanesulfonate in rats
2.3.1. Study objective: SD rats were used as test animals. The pharmacokinetic behavior of various salt forms of 2-(2-cyano-5-oxo-8-(trifluoromethyl)pyrazolo[1,5-a]pyrido[3,2-e]pyrimidin-4(5H)-yl)-N-(5-fluoropyridin-2-yl)acetamide was studied in rat body (plasma) by orally administration at a dose of 10 mg/kg.
2.3.2.4 Administration: After an overnight fast, male SD rats (3 rats per group) were administered p.o. with the test compound at a dose of 10 mg/kg and a volume of 10 mL/kg.
2.3.2.5 Sample collection: 0.2 mL of blood was taken from the jugular vein of the rat before administration and at 0, 0.5, 1, 2, 4, 6, 8 and 24 hours after administration. The samples were stored in EDTA-K2 tubes, and centrifuged for 6 minutes at 4° C., 6000 rpm to separate the plasma. The plasma samples were stored at −80° C.
1) 160 μL of acetonitrile was added to 40 μL of the plasma sample for precipitation, and then the mixture was centrifuged at 3500×g for 5 to 20 minutes.
2) After the above process, 100 μL of the supernatant was taken to analyze the concentration of the test compound by LC/MS/MS.
2.3.2.7 Liquid chromatography analysis • Liquid chromatography condition: Shimadzu LC-20AD pump • Mass spectrometry condition: AB Sciex API 4000 mass spectrometer • Chromatographic column: phenomenex Gemiu 5 um C18 50×4.6 mm • Mobile phase: Eluent A was 0.1% formic acid in water, and Eluent B was acetonitrile • Flow rate: 0.8 mL/min • Elution time: 0-4.0 minutes, the eluent is as follows:
The main parameters of pharmacokinetics were calculated by WinNonlin 8.2.

[2] = Thermodynamic stability experiment (polymorphism screening of the methanesulfonate); format: physicochemical; details: pulped in solvents at 35° C. for 24 hours, XRPD
Description: 6.1 Polymorphism screening of the methanesulfonate of compound 2-(2-cyano-5-oxo-8-(trifluoromethyl)pyrazolo[1,5-a]pyrido[3,2-e]pyrimidin-4(5H)-yl)-N-(5-fluoropyridin-2-yl)acetamide
The mixture was magnetically pulped in a metal bath at 35° C. for 24 hours, and centrifuged. The resulting solid was dried, and the XRPD thereof was determined.

[3] = Solid stability experiment (high temperature, high humidity, high temperature and high humidity); format: physicochemical
Description: 4.1.1 Experimental objective: To investigate the physical and chemical stability of the crystal form of the compound under the conditions of high temperature, high humidity, as well as high temperature and high humidity, so as to provide a basis for crystal form screening and storage of the crystal form of the compound.
The content of the salt was determined by HPLC using the external standard method, and the change of relevant substances was calculated by using the chromatographic peak area normalization method.

[4] = Hygroscopicity experiment (DVS); format: physicochemical
Outline: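 Hygroscopic weight gain (%) measured after each salt's crystal form reached dynamic equilibrium with water vapour at various relative humidities, by dynamic vapour sorption.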

[5] = Solubility experiment in different media; format: physicochemical; details: for solubility at 24 h: thermodynamic from solid
Description: The vials were placed on a spin mixer overnight at room temperature. After 24 hours, the sample solution was filtered through a 0.45 μm mixed aqueous fiber membrane. The content of the compound in the filtrate was determined by HPLC. [table]

[6] = High humidity (92.5% RH), Day 7
[7] = High humidity (92.5% RH), Day 14
[8] = High temperature (60° C.), Day 7
[9] = High temperature (60° C.), Day 14
[10] = High temperature and high humidity (50° C.&75% RH), Day 7
[11] = High temperature and high humidity (50° C.&75% RH), Day 14
[12] = Cycle 1, target relative humidity 0.0%, 25° C.
[13] = Cycle 1, target relative humidity 10.0%, 25° C.
[14] = Cycle 1, target relative humidity 20.0%, 25° C.
[15] = Cycle 1, target relative humidity 30.0%, 25° C.
[16] = Cycle 1, target relative humidity 40.0%, 25° C.
[17] = Cycle 1, target relative humidity 50.0%, 25° C.
[18] = Cycle 1, target relative humidity 60.0%, 25° C.
[19] = Cycle 1, target relative humidity 70.0%, 25° C.
[20] = Cycle 1, target relative humidity 80.0%, 25° C.
[21] = Cycle 1, target relative humidity 90.0%, 25° C.
[22] = Cycle 1, target relative humidity 95.0%, 25° C.
[23] = Cycle 2, target relative humidity 0.0%, 25° C.
[24] = Cycle 2, target relative humidity 10.0%, 25° C.
[25] = Cycle 2, target relative humidity 20.0%, 25° C.
[26] = Cycle 2, target relative humidity 30.0%, 25° C.
[27] = Cycle 2, target relative humidity 40.0%, 25° C.
[28] = Cycle 2, target relative humidity 50.0%, 25° C.
[29] = Cycle 2, target relative humidity 60.0%, 25° C.
[30] = Cycle 2, target relative humidity 70.0%, 25° C.
[31] = Cycle 2, target relative humidity 80.0%, 25° C.
[32] = Cycle 2, target relative humidity 90.0%, 25° C.
[33] = Cycle 2, target relative humidity 95.0%, 25° C.

Which results are given for `CS(=O)(=O)O.N#Cc1cc2n(CC(=O)Nc3ccc(F)cn3)c(=O)c3ccc(C(F)(F)F)nc3n2n1` [Methanesulfonate (crystal form A), 2-(2-cyano-5-oxo-8-(trifluoromethyl)pyrazolo[1,5-a]pyrido[3,2-e]pyrimidin-4(5H)-yl)-N-(5-fluoropyridin-2-yl)acetamide methanesulfonate]?
exposure AUC and maximum plasma concentration Cmax compared with the free base ([1]; 10 mg/kg): superior; AUC(0-t) ([1]; male, rat, po, p.o. 10 mg/kg, plasma, vehicle 0.5% HPMC, read-out: Area under curve AUC0-t): 25800 ng·h/mL; MRT inf ([1]; male, rat, po, p.o. 10 mg/kg, plasma, vehicle 0.5% HPMC, read-out: Average residence time MRT0-∞): 4.8 h; half-life ([1]; male, rat, po, p.o. 10 mg/kg, plasma, vehicle 0.5% HPMC, read-out: Half life t1/2 (converted)): 2.7 h; Tmax ([1]; male, rat, po, p.o. 10 mg/kg, plasma, vehicle 0.5% HPMC, read-out: Peak time tmax): 4 h; Cmax ([1]; male, rat, po, p.o. 10 mg/kg, plasma, vehicle 0.5% HPMC, read-out: Plasma concentration Cmax): 3320 ng/mL; thermodynamic stability of the crystal form [2]: thermodynamically stable crystal form; solid stability under high temperature and high humidity ([3]; 50° C.&75% RH, 7 and 14 days): stable; solid stability under high temperature ([3]; 60° C., 7 and 14 days): stable; solid stability under high humidity ([3]; 92.5% RH, 7 and 14 days): stable; % increase of total impurities [3, 6]: <0.1%; % maximum increase of single impurity [3, 6]: <0.1%; % increase of total impurities [3, 7]: <0.1%; % maximum increase of single impurity [3, 7]: <0.1%; % increase of total impurities [3, 8]: <0.2%; % maximum increase of single impurity [3, 8]: <0.1%; % increase of total impurities [3, 9]: <0.1%; % maximum increase of single impurity [3, 9]: <0.1%; % increase of total impurities [3, 10]: <0.1%; % maximum increase of single impurity [3, 10]: <0.1%; % increase of total impurities [3, 11]: <0.1%; % maximum increase of single impurity [3, 11]: <0.1%; hygroscopicity (Chinese Pharmacopoeia description) ([4]; 25° C., relative humidity 80%): slightly hygroscopic; hygroscopic weight gain ([4]; 80% relative humidity): ≤ 0.5%; % percentage of mass change, Desorption [4, 12]: −0.029%; % percentage of mass change, Sorption [4, 12]: 0.000%; % percentage of mass change, Desorption [4, 13]: 0.030%; % percentage of mass change, Sorption [4, 13]: 0.051%; % percentage of mass change, Desorption [4, 14]: 0.082%; % percentage of mass change, Sorption [4, 14]: 0.096%; % percentage of mass change, Desorption [4, 15]: 0.133%; % percentage of mass change, Sorption [4, 15]: 0.138%; % percentage of mass change, Desorption [4, 16]: 0.190%; % percentage of mass change, Sorption [4, 16]: 0.179%; % percentage of mass change, Desorption [4, 17]: 0.253%; % percentage of mass change, Sorption [4, 17]: 0.222%; % percentage of mass change, Desorption [4, 18]: 0.320%; % percentage of mass change, Sorption [4, 18]: 0.272%; % percentage of mass change, Desorption [4, 19]: 0.395%; % percentage of mass change, Sorption [4, 19]: 0.340%; % percentage of mass change, Desorption [4, 20]: 0.502%; % percentage of mass change, Sorption [4, 20]: 0.446%; % percentage of mass change, Desorption [4, 21]: 0.760%; % percentage of mass change, Sorption [4, 21]: 0.700%; % percentage of mass change, Desorption [4, 22]: 1.109%; % percentage of mass change, Sorption [4, 22]: 1.109%; % percentage of mass change, Desorption [4, 23]: −0.046%; % percentage of mass change, Sorption [4, 23]: −0.029%; % percentage of mass change, Desorption [4, 24]: 0.014%; % percentage of mass change, Sorption [4, 24]: 0.024%; % percentage of mass change, Desorption [4, 25]: 0.067%; % percentage of mass change, Sorption [4, 25]: 0.073%; % percentage of mass change, Desorption [4, 26]: 0.118%; % percentage of mass change, Sorption [4, 26]: 0.118%; % percentage of mass change, Desorption [4, 27]: 0.177%; % percentage of mass change, Sorption [4, 27]: 0.162%; % percentage of mass change, Desorption [4, 28]: 0.241%; % percentage of mass change, Sorption [4, 28]: 0.209%; % percentage of mass change, Desorption [4, 29]: 0.305%; % percentage of mass change, Sorption [4, 29]: 0.263%; % percentage of mass change, Desorption [4, 30]: 0.378%; % percentage of mass change, Sorption [4, 30]: 0.331%; % percentage of mass change, Desorption [4, 31]: 0.480%; % percentage of mass change, Sorption [4, 31]: 0.433%; % percentage of mass change, Desorption [4, 32]: 0.734%; % percentage of mass change, Sorption [4, 32]: 0.675%; % percentage of mass change, Desorption [4, 33]: 1.076%; % percentage of mass change, Sorption [4, 33]: 1.076%; solubility at 24 h ([5]; aqueous buffer, USP Buffer pH 3, room temperature): 4.3 µg/mL; solubility at 24 h ([5]; aqueous buffer, USP Buffer pH 4, room temperature): 3.6 µg/mL; solubility at 24 h ([5]; aqueous buffer, USP Buffer pH 5, room temperature): 3 µg/mL; solubility at 24 h ([5]; aqueous buffer, USP Buffer pH 6, room temperature): 2.4 µg/mL; solubility at 24 h ([5]; aqueous buffer, USP Buffer pH 7, room temperature): 2.2 µg/mL; solubility at 24 h ([5]; aqueous buffer, USP Buffer pH 8, room temperature): 1.8 µg/mL; solubility at 24 h ([5]; fassgf or other biorelevant, FaSSGF, room temperature): 3.3 µg/mL; solubility at 24 h ([5]; pure water, water, H2O, room temperature): 1.9 µg/mL; solubility in the corresponding media compared with crystal form II of the free base ([5]; room temperature, 24 hours, buffers, FaSSGF, FaSSIF, FeSSIF, water): increased by more than four times; solubility at 24 h ([5]; simulated gastric fluid, USP Buffer pH 1, room temperature): 2.3 µg/mL; solubility at 24 h ([5]; simulated gastric fluid, USP Buffer pH 2, room temperature): 2.3 µg/mL; solubility at 24 h ([5]; FaSSIF, room temperature): 7.8 µg/mL; solubility at 24 h ([5]; FeSSIF, room temperature): 11.3 µg/mL
